In US10758513B2, “Modulators of mitochondrial protein import” (THE REGENTS OF THE UNIVERSITY OF CALIFORNIA, priority 2011, dated 2020):
Values after ≈ are worked out from the molar mass of the structure shown. “Also recorded” adds a separate entry of the source.

Legend:
[1] = test system: isogenic control (TIM10); assay: Yeast growth inhibition (MIC50), isogenic control (TIM10); assay type: cell-based; settings: Saccharomyces cerevisiae
Description: A primary screen was performed using freshly streaked tim10-1 diluted in YPD to an OD600 of approximately 0.0002 and kept on ice throughout the screening run. A Titertek multidrop (Huntsville, Ala.) was used dispense 40 μL of cell suspension to all wells of each clear 384-well plate (Greiner Bio One). After yeast suspension warmed to room temperature, a Biomek FX (Beckman Coulter) was used to pin transfer 0.5 μL of compound from 1 mM stock or DMSO to respective wells. Approximate screening concentration was 12.5 μM. All operations were performed by an automated plate scheduler to ensure consistency across the screening run. After completed compound transfer, all plates were incubated at 25° C. in a humidified incubator until the OD600 reached approximately 0.8 in the control wells; the control consisted of the tim10-1 mutant with the vehicle 1% DMSO. Each plate was shaken in a Beckman orbital shaker to resuspend settled cells, and the OD600 in each well was read by a Wallac Victor plate reader (Perkin Elmer). The top 600 growth inhibitory compounds were determined and assembled into two plates. Using a similar screening methodology, hit compounds were reconfirmed with the tim10-1 strain and growth inhibition was compared to the WT strain (TIM10) as well as the “rescued” strain (tim10-1 TIM10 that contained a copy of the wild-type TIM10 genes on a centromeric plasmid) strains. […]

[2] = test system: WT mitochondria; assay: In vitro import of AAC into wild-type mitochondria; assay type: biochemical, yeast
Description: Prior to import into purified mitochondria, ^35S-methionine and cysteine labeled proteins were generated with TNT Quick Coupled Transcription/Translation kits (Promega) and plasmids carrying the gene of interest. Transcription of genes was driven by either a T7 or SP6 promoter. Import reactions were conducted according to established methods. After frozen mitochondria aliquots were thawed and added to the import buffer at a final concentration of 100 μg/mL, drug or DMSO vehicle was added as indicated. A final vehicle concentration of 1% was used in all experiments. Following 15 minute incubation at 25° C., import reactions were initiated by the addition of […] of translation mix. Aliquots were removed at intervals during the reaction timecourse and import was terminated with either cold buffer, 25 μg/mL trypsin, or a combination of both. If trypsin was added to digest unimported precursor protein, soybean trypsin inhibitor (STI) was subsequently added in excess after 15 minute incubation on ice. After a final recovery of by centrifugation (8,000×g, 5 minutes), mitochondria were disrupted in Laemmli sample buffer. Imports of membrane proteins (AAC, PiC, Tom40, Tim22, and Tim23) included a carbonate extraction step to remove proteins that had not inserted into the membrane (Koehler C M, et al. (1998), Science 279:369-373). […]

[3] = test system: tim9-3 mutant; assay: Yeast growth inhibition (MIC50), tim9-3 mutant; assay type: cell-based; settings: Saccharomyces cerevisiae; disrupted for prd5 and snq2
[4] = target: T1, Erv1 (Saccharomyces cerevisiae, UniProt P27882); assay: Reconstitution of substrate oxidation with Mia40 and Erv1; assay type: biochemical, yeast; settings: after three hours; DMSO control approximately 80%
T1 construct: made in house
T1 sequence (P27882 1-189): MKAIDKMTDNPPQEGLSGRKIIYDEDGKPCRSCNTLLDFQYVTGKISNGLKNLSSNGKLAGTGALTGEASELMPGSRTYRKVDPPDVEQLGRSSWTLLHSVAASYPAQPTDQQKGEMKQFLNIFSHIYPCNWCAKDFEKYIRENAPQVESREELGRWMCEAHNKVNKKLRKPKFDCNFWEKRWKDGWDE
Description: (A) Mitochondria from a strain expressing C-terminal histidine-tagged Erv1 were incubated with 50 μM MitoBloCK-6 or 1% DMSO for 30 min at 25° C. followed by solubilization in 1% digitonin buffer. As a control, 100 μg of extract was withdrawn (T), and 500 μg lysate was incubated with Ni+^2-agarose beads. The beads were washed and bound proteins (B) were eluted with SDS-PAGE sample buffer. To test effectiveness of binding, 100 μg of the unbound protein fraction (S) was also included. Proteins were analyzed by immunoblotting with polyclonal antibodies against Mia40, Erv1, and cyt c. […] Oxidized and reduced Tim13 were detected by non-reducing SDS-PAGE and immunoblotting with antibodies against Tim13.
Reconstitution studies with reduced Tim13 were performed as described previously (Tienson et al., 2009). […] H2O2 levels in the reconstitution assays were measured using the Amplex Red Hydrogen Peroxide/Peroxidase Assay kit according to the manufacturer's protocol (Dabir et al., 2007) (Invitrogen). […] The Erv1 or ALR-catalyzed reduction of 02 to H2O2 was measured by a FlexStation plate reader (Molecular Devices) controlled via the SoftMax Pro software package (Molecular Devices) for data acquisition. […]

[5] = target: T1, Erv1; assay: In vitro Erv1 oxidase activity, Amplex Red-HRP assay; assay type: biochemical, yeast
Description: The primary chemical screen used fresh recombinant Erv1 (in buffer 30 mM Hepes, pH 7.4, 100 mM NaCl, 1 mM EDTA) at a concentration of 10 μM, which was expressed as described previously. […] A Biomek FX (Beckman Coulter) was used to pin transfer 0.5 μl of compound from 1 mM stock or DMSO to respective wells. Approximate screening
concentration was 12.5 μM. After completed compound transfer, all plates were incubated at 25° C. in a humidified incubator for 1 hour. A Titertek multidrop was used to dispense 15 μl of Amplex Red-horseradish peroxidase (HRP) (Sigma) mix into all wells of the 384-well plate. The final concentration of Amplex Red and HRP were 46 μM and 0.092 U/ml, respectively. The Amplex Red-HRP solution was shielded from light during the entire experiment. The plates were incubated for an additional 10 min and then 15 μl of the substrate DTT (20 μM) was added to initiate the reduction of 02 to H2O2. […] Plates were then read at an endpoint using an excitation wavelength of 545 nm and an emission wavelength of 590 nm. […]
H2O2 production was measured using a standard fluorometric assay with Amplex Red and horseradish peroxidase (HRP). […] Fluorescence intensity was measured and reactions that were inhibited by more than 50% were picked as potential Erv1 inhibitors and selected for secondary analysis.

[6] = target: Erv2 (Saccharomyces cerevisiae, UniProt Q12284); assay: In vitro Erv2 activity, Amplex Red-HRP assay; assay type: biochemical, yeast
Chain of Erv2 (Q12284 whole entry): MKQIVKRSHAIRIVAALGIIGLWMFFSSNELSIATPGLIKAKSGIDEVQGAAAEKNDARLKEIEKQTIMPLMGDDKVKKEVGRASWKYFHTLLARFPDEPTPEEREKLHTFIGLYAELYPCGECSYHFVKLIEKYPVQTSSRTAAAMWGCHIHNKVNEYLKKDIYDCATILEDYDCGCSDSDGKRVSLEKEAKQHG

Compound	MIC50 [1] [µM]	import of AAC into WT mitochondria [2]	MIC50 [3] [µM]	Tim13 oxidized [4] [%]	IC50 [5] [µM]	IC50 [6] [µM]
NC(=S)N/N=C/c1c(O)c(Br)cc2oc3c(c12)CCCC3 [MitoBloCK-1]	> 200	did not inhibit import; also recorded: does not inhibit AAC import	11 (≈ 4.05 µg/mL)			
Oc1c(Cl)cc(Cl)cc1/C=N/c1ccc(Nc2ccccc2)cc1 [MitoBloCK-6]				15	0.9	1.4
